Laboratory results as given in patent US5324725A, “7-fused 2-(piperazinoalkyl) indole derivatives, intermediates and compositions thereof” (Kali-Chemie Pharma GmbH, priority 1991, dated 1994).

Legend:
[1] = Determination of the minimum toxic dose; parameters: species or system male mice; conditions: mouse, in vivo, po, 300 mg/kg, 1440 min
Procedure: 2. Determination of the minimum toxic dose.
Maximum doses of 300 mg/kg of the test substance were administered orally to male mice weighing 20-25 g. The animals were observed carefully for 3 hours for toxicity symptoms. In addition, all symptoms and deaths over a period of 24 hours after administration were recorded. Associated symptoms were also observed and recorded. If death or severe toxic symptoms were observed, further mice were administered increasingly lower doses. The lowest dose which caused death or severe toxic symptoms is given as the minimum toxic dose in the following Table B.

[2] = test system: Histamine-induced anaphylactoid reactions; assay: Inhibition of anaphylactoid cutaneous reaction induced by histamine; assay type: in vivo, rat (Sprague-Dawley); conditions: Rattus norvegicus, 1 h; rats, 2 × 10^-5 mol/kg p.o., one hour before challenge; histamine intradermal
Procedure: (§1) 1. Determination of the inhibition of passive cutaneous anaphylaxis (P.C.A.) and of the anaphylactoid cutaneous reaction induced by histamine.
(§2) The determination of the inhibition of passive cutaneous anaphylaxis and the anaphylactoid cutaneous reaction induced by histamine was carried out as follows:
To determine the histamine-induced anaphylactoid skin reaction, the animals were injected intradermally in the flank opposite to the antiserum administration with 50 μl of a physiological saline solution containing 0.8 mg/ml of histamine directly before the i.v. injection of the solution containing the ovalbumin and the blue dye.
(§3) On the test days, the test substances were dissolved in distilled water which contained 1% by volume of dimethylformamide and 1% by volume of Tween®20 (polyoxyethylene(20) sorbitan monolaurate). One hour before the challenging ovalbumin administration, each animal received 2×10^-5 mol/kg of test substance administered orally in 0.5 ml of solution. A control group received only the solvent for comparison.
(§4) The oedematous anaphylactic (P.C.A.) and anaphylactoid (histamine-induced) reactions caused by the challenging i.v. ovalbumin injection, which are manifested by oedema formation, swelling and exudation of blue dye, were evaluated 30 minutes after challenge by the i.v. ovalbumin injection. This was done by visual determination of the extent to which the blue dye emerges at the sites of oedema formation. The percentage inhibition of anaphylactic and anaphylactoid reactions caused by the test substances was determined in comparison with the reactions of the control animals not treated with test substance with the aid of comparison scales.
(§5) The results obtained by the above test methods using compounds of the formula I are shown in the following Table A. The example numbers given for the compounds of formula I relate to the following preparation examples.

[3] = test system: Passive cutaneous anaphylaxis (P.C.A.); assay: Inhibition of passive cutaneous anaphylaxis (P.C.A.); assay type: in vivo, rat (Sprague-Dawley); conditions: Rattus norvegicus, 1 h; rats, 2 × 10^-5 mol/kg p.o., one hour before ovalbumin challenge
Procedure: as §1
The P.C.A. reaction was carried out according to the methods described by Goose et al. (J.N. Immunology 16 (1969), 749) and by Martin et al (Arch. Pharmacol. 316 (1981), 186}.
The IgE-rich ovalbumin antiserum used in the test was obtained from immunized Brown-Norway rats. For immunization, the rats were given an i.p. injection of a mixture of 100 μg of ovalbumin with a Bordetella pertussis suspension (Vaxicoq®, Manufacturer: Institut Merieux, containing 5×10^9 organisms and 1.25 mg of Al(OH)3). After 20 days, the animals received a further i.p. injection of a solution of 10 μg of ovaIbumin in 0.5 ml of physiological saline solution for reimmunisation. After a further four days, the animals were bled, and the blood was centrifuged The antiserum obtained in this way was stored at -20° C. until use.
as §2
Sprague-Dawley rats having a body weight of 150-180 g were injected intradermally in one flank with 50 μl of a 1:75 dilution of the IgE-rich ovalbumin antiserum in physiological sodium chloride solution for passive sensitization to ovalbumin.
24 hours after sensitization a solution of 8.25 mg/kg of ovalbumin and 26.4 mg/kg of a blue dye (Evans' Blue) was administered i.v. to the rats according to Martin et al. to induce passive cutaneous anaphylaxis. The ovalbumin challenge caused a local anaphylactic reaction at the site at which the antiserum had been injected.
as §3, §4, §5

[4] = test system: P.A.F.-induced aggregation of platelets from rabbit blood; assay: Anti-P.A.F. effect in vitro: inhibition of P.A.F.-induced platelet aggregation; assay type: cell-based, rabbit (New Zealand hybrids); conditions: Oryctolagus cuniculus, Platelet, test substance concentration 10^-5 mol/l
From the text: 4. Determination of anti-P.A.F. effect in vitro.
Platelet-activating factor (P.A.F.) is a phospholipid mediator which has several effects. The activation of platelet aggregation leads to the induction of protracted broncho contractions and hyperreactivity of the airways.
The effects of the test substances on platelet aggregation induced by adding P.A.F. to a platelet suspension obtained from rabbit blood was investigated by the method described by Mikashima et al. (Jap. J. Pharmacol. 44 (1987) 387-391).
A suspension of platelets originating from rabbit blood was used which contained 4×10^9 platelets/ml in a modified Tyrode buffer solution adjusted to pH 7.4. Tyrode solution is an aqueous solution containing 136.9 mmol of NaCl, 2.68 mmol of KCl, 2.31 mmol of CaCl2, 1.0 mmol of MgCl2, 11.9 mmol of NaHCO3, 1.45 mmol of NaH2 PO4 and 5.55 mmol of glucose per liter. This solution was modified by adding 1.3 mM/l of CaCl2 and 2.5 g/l of gelatin. The platelets were obtained from 10 ml blood samples from each of three rabbits (New Zealand hybrids, body weight 3-4 kg). For this, the blood samples were treated with ethylenediaminetetraacetic acid and washed by the method of Artley et al. (Brit. J. Hamatol. 19 (1970), 7-17). A platelet-rich plasma was then initially separated by centrifugation (20 minutes at 400×g). The platelets were separated from the plasma by centrifuging again for 15 minutes at 1400×g. After centrifuging, the platelets remaining as a sediment were resuspended in a calcium-free Tyrode buffer solution. 0.4 mmol of lysine acetylsalicylate were then added and after 15 minutes the blood platelets were sedimented again. The sediment was resuspended in the abovementioned modified Tyrode buffer solution, and the number of platelets in the resulting suspension was adjusted to the desired content.
A 40×10^-9 molar P.A.F. solution was used as the reagent. This solution was prepared from a 1.8×10^-3 molar stock solution in chloroform. For this, a 10μl sample of the stock solution was evaporated to dryness and redissolved in 180 μl of the modified Tyrode solution, to which 0.25% of dilapidated bovine serum albumin had been added. 10^-5 molar working solutions were then prepared from this and stored frozen. Samples of these solutions were appropriately diluted for the tests.
To carry out the tests, 50 μl of the platelet solution and 10 μl of a 40×10^-5 molar solution of the compound to be investigated were added to 330 μl of the modified Tyrode buffer solution with stirring (1000 rpm) in an aggregation tube provided with a small magnetic stirrer. This corresponds to a final test substance concentration of 10^-5 mol/l. After a preincubation time of 90seconds, 10 μl of the P.A.F. preparation were added. The aggregation occurring in the aggregation tubes was measured for 4-5 minutes using a computerized aggregometer.
The aggregation occurring in the test tubes containing only platelet suspension was rated as 0%. The aggregation occurring in test tubes containing platelet suspension and P.A.F. preparation was rated as 100%. The aggregation which still occurred in the presence of the test substances (i.e. during inhibition of the P.A.F.-induced platelet aggregation increase) was measured, and the resulting aggregation inhibition is calculated from this in %.

cyclooxygenase = biological target: T1, cyclooxygenase (Mus musculus, UniProt P22437); assay: Cyclooxygenase inhibition: release of 6-keto-PGF1 α from zymosan-stimulated mouse peritoneal macrophage cells; assay type: cell-based; conditions: 10^-5 mol/l, read-out: In vitro % inhibition effect on the release of 6-keto-PGF1 α
T1 construct: A cell suspension containing peritoneal cells of male mice 8-10 weeks old was obtained; endogenous in cells; host or cells: mouse peritoneal macrophages (male mice 8-10 weeks old), zymosan-stimulated
T1 sequence (P22437 27-602): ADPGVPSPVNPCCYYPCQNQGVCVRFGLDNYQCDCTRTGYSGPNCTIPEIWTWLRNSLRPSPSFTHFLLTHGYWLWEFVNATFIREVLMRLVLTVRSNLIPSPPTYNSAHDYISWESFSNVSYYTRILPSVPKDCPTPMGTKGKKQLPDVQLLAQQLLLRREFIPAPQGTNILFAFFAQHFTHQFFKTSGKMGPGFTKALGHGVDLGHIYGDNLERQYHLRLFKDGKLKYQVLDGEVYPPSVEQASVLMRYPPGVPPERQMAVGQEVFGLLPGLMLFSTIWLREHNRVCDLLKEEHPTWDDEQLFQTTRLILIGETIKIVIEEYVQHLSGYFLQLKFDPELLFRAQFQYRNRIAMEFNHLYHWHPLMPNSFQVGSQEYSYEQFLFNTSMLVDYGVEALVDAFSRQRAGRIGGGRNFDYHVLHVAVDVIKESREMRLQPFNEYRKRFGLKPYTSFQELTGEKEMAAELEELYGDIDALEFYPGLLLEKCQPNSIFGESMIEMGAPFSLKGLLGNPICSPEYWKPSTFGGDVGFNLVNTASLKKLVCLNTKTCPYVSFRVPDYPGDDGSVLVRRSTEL
From the text: (§6) 5. In vitro determination of cyclooxygenase inhibition and 5-lipoxygenase inhibition.
(§7) After activation of the cell, arachidonic acid contained in cell membranes is metabolized in two ways. Leukotrienes, inter alia leukotriene C4, are formed under the action of the enzyme 5-lipoxygenase (5-LO), and prostanoids are formed under the action of the enzyme cyclooxygenase (CO). In in vitro systems, the metabolites are secreted from the cell.
(§8) To investigate the cyclooxygenase-inhibiting and the 5-lipoxygenase-inhibiting properties, the inhibitory effect of the test substances on the biosynthesis of the arachidonic acid derivatives leukotriene C4 (LTC4) and 6-ketoprostaglandin F1 α (6-keto-PGF1 α) is determined in vitro on mouse peritoneal macrophage cells. This was accomplished by determining the LTC4 and 6-keto-PGF1 α contents in a culture medium of mouse peritoneal macrophage cells by zymosan stimulation as described by Scott et al. (J. Exp. Med. 152 (1980), 324-335) and by Fradin et al. (Prostaglandins, 33 (1987), 579-589).
(§9) A cell suspension containing peritoneal cells of male mice 8-10 weeks old was obtained in a known manner. A commercially available cell culture solution (RPMI 1640 from Messrs. Gibco) was used to which heparin (I0 international units/ml) and antibiotics were added according to the recipe of Bonney et al. (Biochem. J. 176 (1978) 422-433). The cell suspension was adjusted to a cell concentration of 10^6 cells per ml and distributed uniformly on titer plates containing […] (wells). These were kept for two hours in a humidified incubator filled with air enriched with 7% CO2. Cells not adhering to the titer cell walls were then removed by washing. The remaining macrophage cells adhering to the walls were incubated for about 12 hours in a suspension medium to which 0.1% bovine serum albumin (BSA) were added. The suspension medium was then replaced by a Hanks balanced salt solution (HBSS) containing 10 mM Hepes (hydroxyethyl-piperazinoethanesulfonic acid), to which a 0.1% strength solution of the test substances in aqueous, 1% strength dimethylformamide or only the solvent had been added. After 15 minutes the arachidonic acid metabolism was stimulated by adding 10 particles of zymosan (=glycoproteinmixture, isolated from cell walls of beer yeast, Saccharomyces cerevisiae, manufactured by Sigma Chemical Co., Munich) per titer cell. After 2 hours, samples of each of the supernatant liquids were investigated for their 6-keto-PGF1 α and LTC4 contents by means of an enzyme immunoassay (EIA) carried out by the method of Pradelles et al. (Analytical Chem. 57 (1985), 1170-1173). The determination of LTC4 and the determination of 6-keto-PGF1 α were each carried out in comparison with a comparative scale on suitable dilutions of the samples (1:50 to 1:250 for the LTC4 determination and 1:250 to 1:1250 for the 6-keto-PGF1 α determination). To determine the inhibitory effect of a 10^-5 molar concentration of the compounds, the amount of reference eicosanoids was determined and the inhibitory effect was calculated from this in % inhibition compared to the measurements of the zymosan controls.

5-lipoxygenase = biological target: T2, 5-lipoxygenase (Mus musculus, UniProt P48999); assay: 5-lipoxygenase inhibition: release of LTC4 from zymosan-stimulated mouse peritoneal macrophage cells; assay type: cell-based; conditions: 10^-5 mol/l, read-out: In vitro % inhibition effect on the release of LTC4
T2 construct: A cell suspension containing peritoneal cells of male mice 8-10 weeks old was obtained; endogenous in cells; host or cells: mouse peritoneal macrophages (male mice 8-10 weeks old), zymosan-stimulated
T2 sequence (P48999 1-674): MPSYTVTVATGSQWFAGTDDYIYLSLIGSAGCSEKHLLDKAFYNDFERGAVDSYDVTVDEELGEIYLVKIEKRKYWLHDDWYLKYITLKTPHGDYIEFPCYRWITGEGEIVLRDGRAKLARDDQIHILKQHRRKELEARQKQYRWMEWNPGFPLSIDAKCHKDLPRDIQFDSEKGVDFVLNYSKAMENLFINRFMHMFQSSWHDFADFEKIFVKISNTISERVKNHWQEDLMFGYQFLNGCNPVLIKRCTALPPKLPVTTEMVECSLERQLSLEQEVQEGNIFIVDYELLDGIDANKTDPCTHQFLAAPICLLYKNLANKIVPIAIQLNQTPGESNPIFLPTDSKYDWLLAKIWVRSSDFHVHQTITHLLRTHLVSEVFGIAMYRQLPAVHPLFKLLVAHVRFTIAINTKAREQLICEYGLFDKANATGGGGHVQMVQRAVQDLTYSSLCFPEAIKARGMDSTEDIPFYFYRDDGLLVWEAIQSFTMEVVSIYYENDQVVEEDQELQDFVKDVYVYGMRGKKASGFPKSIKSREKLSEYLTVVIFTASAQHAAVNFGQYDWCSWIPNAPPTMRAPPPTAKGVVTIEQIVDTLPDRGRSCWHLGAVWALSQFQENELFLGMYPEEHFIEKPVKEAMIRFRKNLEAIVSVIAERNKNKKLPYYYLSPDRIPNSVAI
From the text: as §6, §7, §8, §9

Row | SMILES | Minimum toxic dose (lowest dose which caused death or severe toxic symptoms) [1] [mg/kg] | inhibition in vivo at 20 µmol/kg [2] [%] | inhibition in vivo at 20 µmol/kg [3] [%] | inhibition at 10 µM [4] [%] | inhibition at 10 µM (cyclooxygenase) [%] | inhibition at 10 µM (5-lipoxygenase) [%]
1 | Cc1ccnc(N2CCN(CCc3c(-c4ccccc4)n4c5c(cccc35)CCC4)CC2)c1 [Example 40] | 300 | 43 | 70 | 100 |  | 
2 | Cc1ccnc(N2CCN(CCc3c(C)n4c5c(cc(C(=O)c6ccc(Cl)cc6)cc35)CCC4)CC2)c1 [Example 82] |  |  |  |  | 58 | 9
3 | Cc1ccnc(N2CCN(CCc3c(C)n4c5c(cc(CC6CCCCC6)cc35)CCC4)CC2)c1 [Example 84] |  |  |  |  | 46 | 20
4 | Cc1c(CCN2CCC(C(=O)c3ccccc3)CC2)c2cccc3c2n1CCC3C (stereo not drawn) [Example 56] | 300 | 50 | 80 | 42 |  | 
